Assay results: US20170190671A1, “BIS(ARYL)CATECHOL DERIVATIVES AS HERBICIDES” (E I DU PONT DE NEMOURS AND COMPANY, priority 2014, published 2017)

Tests used:
Assay type in all cases: in vivo
Settings in all cases: scale 0 to 100
[1] = tested on: green foxtail (Setaria viridis); assay: Test D postemergence
Text: (§1) Seeds of plant species selected from bluegrass (annual bluegrass, Poa annua), blackgrass (Alopecurus myosuroides), canarygrass (Phalaris minor), chickweed (common chickweed, Stellaria media), cutleaf geranium (Geranium dissectum), galium (catchweed bedstraw, Galium aparine), downy bromegrass (Bromus tectorum), field poppy (Papaver rhoeas), field violet (Viola arvensis), green foxtail (Setaria viridis), deadnettle (henbit deadnettle, Lamium amplexicaule), Italian ryegrass (Lolium multiflorum), kochia (Kochia scoparia), lambsquarters (Chenopodium album), oilseed rape (Brassica napus), pigweed (Amaranthus retroflexus), chamomile (scentless chamomile, Matricaria inodora), Russian thistle (Salsola kali), speedwell (bird's-eye speedwell, Veronica persica), spring barley (Hordeum vulgare), spring wheat (Triticum aestivum), wild buckwheat (Polygonum convolvulus), wild mustard (Sinapis arvensis), wild oat (Avenafatua), wild radish (Raphanus raphanistrum), windgrass (Apera spica-venti), winter barley (Hordeum vulgare), and winter wheat (Triticum aestivum) were planted into a silt loam soil and treated preemergence with test chemicals formulated in a non-phytotoxic solvent mixture which included a surfactant.
(§2) At the same time, these species were planted in pots containing Redi-Earth® planting medium (Scotts Company, 14111 Scottslawn Road, Marysville, Ohio 43041) comprising spaghnum peat moss, vermiculite, wetting agent and starter nutrients and treated with postemergence applications of the test chemicals formulated in the same manner. Plants ranged in height from 2 to 18 cm (1- to 4-leaf stage). Treated plants and controls were maintained in a controlled growth environment for 14 to 21 days after which time all species were compared to controls and visually evaluated. Plant response ratings, summarized in Table D, are based on a scale of 0 to 100 where 0 is no effect and 100 is complete control. A dash (-) response means no test result.

[2] = tested on: deadnettle (henbit deadnettle, Lamium amplexicaule); assay: Test D postemergence
Text: as §1, §2

kochia (Kochia scoparia) [3] = assay: Test D postemergence
Text: as §1, §2

[4] = tested on: winter wheat (Triticum aestivum); assay: Test D postemergence
Text: as §1, §2

[5] = tested on: winter barley (Hordeum vulgare); assay: Test D postemergence
Text: as §1, §2

[6] = tested on: galium (catchweed bedstraw, Galium aparine); assay: Test D postemergence
Text: as §1, §2

[7] = tested on: spring barley (Hordeum vulgare); assay: Test D postemergence
Text: as §1, §2

[8] = tested on: Russian thistle (Salsola kali); assay: Test D postemergence
Text: as §1, §2

[9] = tested on: field violet (Viola arvensis); assay: Test D postemergence
Text: as §1, §2

[10] = tested on: lambsquarters (Chenopodium album); assay: Test D postemergence
Text: as §1, §2

[11] = tested on: speedwell (bird's-eye speedwell, Veronica persica); assay: Test D postemergence
Text: as §1, §2

[12] = tested on: cutleaf geranium (Geranium dissectum); assay: Test D postemergence
Text: as §1, §2

[13] = tested on: wild radish (Raphanus raphanistrum); assay: Test D postemergence
Text: as §1, §2

[14] = tested on: spring wheat (Triticum aestivum); assay: Test D postemergence
Text: as §1, §2

[15] = tested on: chamomile (scentless chamomile, Matricaria inodora); assay: Test D postemergence
Text: as §1, §2

[16] = tested on: wild mustard (Sinapis arvensis); assay: Test D postemergence
Text: as §1, §2

[17] = tested on: bluegrass (annual bluegrass, Poa annua); assay: Test D preemergence
Summary of the method: (§3)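 Seeds planted in silt loam soil and sprayed preemergence with test chemical in a non-phytotoxic solvent mixture with surfactant; postemergence plants grown in peat/vermiculite medium and treated at 2–18 cm (1- to 4-leaf stage). Visual rating versus untreated controls after 14 to 21 days, 0 (no effect) to 100 (complete control).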

kochia (Kochia scoparia) [18] = assay: Test D preemergence
Summary of the method: as §3

[19] = tested on: oilseed rape (Brassica napus); assay: Test D preemergence
Summary of the method: as §3

[20] = tested on: spring wheat (Triticum aestivum); assay: Test D preemergence
Summary of the method: as §3

[21] = tested on: pigweed (Amaranthus retroflexus); assay: Test D preemergence
Summary of the method: as §3

Fc1cnc(Oc2c(Br)cccc2Oc2ncc(Cl)cn2)nc1 [Compound 22]
0: Plant response rating, Wheat, Winter ([4]; 16 g ai/ha) | Plant response rating, Russian Thistle ([8]; 16 g ai/ha) | Plant response rating, Chamomile ([15]; 16 g ai/ha) | Plant response rating, Chamomile ([15]; 31 g ai/ha) | Plant response rating, Chamomile ([15]; 62 g ai/ha) | Plant response rating, Bluegrass ([17]; 16 g ai/ha) | Plant response rating, Kochia (kochia (Kochia scoparia) [18]; 16 g ai/ha) | Plant response rating, Wheat, Spring ([20]; 16 g ai/ha)
25: Plant response rating, Foxtail, Green ([1]; 62 g ai/ha) | Plant response rating, Field Violet ([9]; 16 g ai/ha) | Plant response rating, Radish, Wild ([13]; 16 g ai/ha)
65: Plant response rating, Deadnettle ([2]; 62 g ai/ha)
30: Plant response rating, Foxtail, Green ([1]; 125 g ai/ha) | Plant response rating, Speedwell ([11]; 16 g ai/ha) | Plant response rating, Oilseed Rape ([19]; 16 g ai/ha)
15: Plant response rating, Foxtail, Green ([1]; 31 g ai/ha) | Plant response rating, Barley, Winter ([5]; 125 g ai/ha) | Plant response rating, Barley, Spring ([7]; 62 g ai/ha) | Plant response rating, Russian Thistle ([8]; 125 g ai/ha) | Plant response rating, Wheat, Spring ([14]; 125 g ai/ha) | Plant response rating, Wheat, Spring ([20]; 62 g ai/ha)
55: Plant response rating, Geranium, Cutleaf ([12]; 31 g ai/ha) | Plant response rating, Geranium, Cutleaf ([12]; 62 g ai/ha) | Plant response rating, Mustard, Wild ([16]; 62 g ai/ha)
70: Plant response rating, Kochia (kochia (Kochia scoparia) [3]; 125 g ai/ha) | Plant response rating, Galium ([6]; 16 g ai/ha) | Plant response rating, Field Violet ([9]; 62 g ai/ha) | Plant response rating, Lambsquarters ([10]; 125 g ai/ha) | Plant response rating, Kochia (kochia (Kochia scoparia) [18]; 125 g ai/ha) | Plant response rating, Oilseed Rape ([19]; 62 g ai/ha) | Plant response rating, Pigweed ([21]; 31 g ai/ha)
10: Plant response rating, Foxtail, Green ([1]; 16 g ai/ha) | Plant response rating, Wheat, Winter ([4]; 125 g ai/ha) | Plant response rating, Barley, Winter ([5]; 31 g ai/ha) | Plant response rating, Barley, Winter ([5]; 62 g ai/ha) | Plant response rating, Barley, Spring ([7]; 31 g ai/ha) | Plant response rating, Russian Thistle ([8]; 62 g ai/ha) | Plant response rating, Wheat, Spring ([14]; 62 g ai/ha) | Plant response rating, Kochia (kochia (Kochia scoparia) [18]; 31 g ai/ha)
20: Plant response rating, Barley, Spring ([7]; 125 g ai/ha) | Plant response rating, Bluegrass ([17]; 31 g ai/ha) | Plant response rating, Kochia (kochia (Kochia scoparia) [18]; 62 g ai/ha)
100: Plant response rating, Pigweed ([21]; 62 g ai/ha) | Plant response rating, Pigweed ([21]; 125 g ai/ha)
60: Plant response rating, Kochia (kochia (Kochia scoparia) [3]; 62 g ai/ha) | Plant response rating, Galium ([6]; 31 g ai/ha) | Plant response rating, Geranium, Cutleaf ([12]; 125 g ai/ha) | Plant response rating, Bluegrass ([17]; 62 g ai/ha)
85: Plant response rating, Galium ([6]; 125 g ai/ha)
90: Plant response rating, Deadnettle ([2]; 125 g ai/ha) | Plant response rating, Speedwell ([11]; 125 g ai/ha) | Plant response rating, Radish, Wild ([13]; 62 g ai/ha) | Plant response rating, Radish, Wild ([13]; 125 g ai/ha) | Plant response rating, Bluegrass ([17]; 125 g ai/ha) | Plant response rating, Oilseed Rape ([19]; 125 g ai/ha)
35: Plant response rating, Radish, Wild ([13]; 31 g ai/ha) | Plant response rating, Mustard, Wild ([16]; 16 g ai/ha) | Plant response rating, Wheat, Spring ([20]; 125 g ai/ha)
50: Plant response rating, Deadnettle ([2]; 16 g ai/ha) | Plant response rating, Deadnettle ([2]; 31 g ai/ha) | Plant response rating, Lambsquarters ([10]; 16 g ai/ha)
5: Plant response rating, Wheat, Winter ([4]; 31 g ai/ha) | Plant response rating, Wheat, Winter ([4]; 62 g ai/ha) | Plant response rating, Barley, Winter ([5]; 16 g ai/ha) | Plant response rating, Barley, Spring ([7]; 16 g ai/ha) | Plant response rating, Russian Thistle ([8]; 31 g ai/ha) | Plant response rating, Wheat, Spring ([14]; 16 g ai/ha) | Plant response rating, Wheat, Spring ([14]; 31 g ai/ha) | Plant response rating, Chamomile ([15]; 125 g ai/ha) | Plant response rating, Wheat, Spring ([20]; 31 g ai/ha)
75: Plant response rating, Galium ([6]; 62 g ai/ha) | Plant response rating, Field Violet ([9]; 125 g ai/ha) | Plant response rating, Lambsquarters ([10]; 62 g ai/ha) | Plant response rating, Speedwell ([11]; 62 g ai/ha) | Plant response rating, Mustard, Wild ([16]; 125 g ai/ha) | Plant response rating, Pigweed ([21]; 16 g ai/ha)
45: Plant response rating, Kochia (kochia (Kochia scoparia) [3]; 31 g ai/ha) | Plant response rating, Geranium, Cutleaf ([12]; 16 g ai/ha)
40: Plant response rating, Kochia (kochia (Kochia scoparia) [3]; 16 g ai/ha) | Plant response rating, Field Violet ([9]; 31 g ai/ha) | Plant response rating, Lambsquarters ([10]; 31 g ai/ha) | Plant response rating, Speedwell ([11]; 31 g ai/ha) | Plant response rating, Mustard, Wild ([16]; 31 g ai/ha) | Plant response rating, Oilseed Rape ([19]; 31 g ai/ha)
